Measured values reported in patent US8741882B2, “Anti-diabetic compounds” (Sen Capital, LLC., priority 2012, dated 2014).
Structures can show the parent of a compound that is named as a salt.

How the values were obtained:
ICR mouse = assay: Animal test: blood glucose after oral glucose load in mice dosed by oral gavage; format: in vivo; details: for response versus vehicle control (negative group), p<0.05 / Means at 20 min. (mean value of glucose level at 20 min. minus glucose level at time zero, before glucose dosing) / blood glucose level as compared with the Vehicle group during the test period (FIG. 5): ICR mouse; for response versus vehicle control (negative group), p<0.05: Metformin Hydrochloride 150 mg/kg, Compound 2 525 and 1050 mg/kg; for Means at 20 min. (mean value of glucose level at 20 min. minus glucose level at time zero, before glucose dosing): 1.5 g/kg glucose 30 min after dosing, in mg/dL; for blood glucose level as compared with the Vehicle group during the test period (FIG. 5): oral gavage, doses as in Table 1
Method: Approximately 7-9-week-old ICR mouse were purchased from BioLASCO Taiwan Co., Ltd (Taipei, Taiwan).
Linear analysis of the glucose monitoring system: eight concentrations (0, 50, 100, 200, 300, 400, 500, 600 mg/dL) of glucose solution were determined duplicate. The animals were fasted approximately 4 hours before dosing. Then, the animals were administered with the test compounds via oral gavage. After 30 minutes of the test compound dosed, the animals were administered with 1.5 g/kg glucose solution (Concentration: 0.15 g/mL, Dose volume: 10 mL/kg) via oral gavage. The blood glucose was determined before the test compound dosing, before glucose dosing, and after glucose dosing in 5, 15, 20, 25, 30, 40 and 50 minutes.
The results were expressed as means and the statistical significance was evaluated by analysis of variance (ANOVA) followed by least significance difference post hoc test. A level of p<0.05 was considered statistically significant.

[1] = following oral administration; cited from earlier work

SMILES | response versus vehicle control (negative group), p<0.05 (ICR mouse) | Means at 20 min. (mean value of glucose level at 20 min. minus glucose level at time zero, before glucose dosing) (ICR mouse; Test 1, 525 mg/kg oral gavage) | Means at 20 min. (mean value of glucose level at 20 min. minus glucose level at time zero, before glucose dosing) (ICR mouse; Test 2, 1050 mg/kg oral gavage) | blood glucose level as compared with the Vehicle group during the test period (FIG. 5) (ICR mouse) | effect on hyperglycemia in terms of efficacy in lowering blood glucose in animals (ICR mouse; summary of Example 3) | absorbed drug eliminated via the renal route within the first 24 hours [1] | Means at 20 min. (mean value of glucose level at 20 min. minus glucose level at time zero, before glucose dosing) (ICR mouse; 150 mg/kg oral gavage)
COC(=O)CC[C@@H](C)[C@H]1CC[C@H]2[C@@H]3[C@H](O)C[C@@H]4C[C@H](OC(=O)NC(=N)NC(=N)N(C)C)CC[C@]4(C)[C@H]3C[C@H](O)[C@]12C [Compound 2] | significantly different | 225.8 | 225.8 | lowered | improved hyperglycemia | – | –
CN(C)C(=N)NC(=N)N [Metformin, N,N-dimethylimidodicarbonimidic diamide] | significantly different | – | – | – | – | approximately 90% | –
CN(C)C(=N)N=C(N)N [Metformin Hydrochloride] | significantly different | – | – | lowered | – | – | 125.4
